Here are results for four molecules from patent publication US20230339991A1, “HYPOXIA-ACTIVATED DNA ALKYLATING AGENT AND MEDICAL USE THEREOF” (ASCENTAWITS PHARMACEUTICALS, LTD., priority 2020, published 2023).

The term IC50 denotes the concentration needed to halve the response being measured.

One series has as its system ICR mice. Kind of series: Maximal tolerance dose (MTD) test, compound B. Type of series: in vivo. The following applies: 40 mg/kg group; i.v. QD×5. The protocol: 18 ICR mice, 9 females/9 males, were randomly divided into compound B 10 mg/kg group, 20 mg/kg group and 40 mg/kg group according to gender and body weight, with 3 females/3 males in each group. […] It was administered once a day for 5 days, and recovered for 2 weeks after the last administration. The animals were closely observed for 2 h after administration on the administration day and once a day in the morning and once in the afternoon on the non-administration day. Body weight and dietary intake were measured twice a week during the test period. Dead animals and all surviving animals after 14 days from the last administration were subjected to autopsy. The autopsy was performed on the pathological organs, and histopathological examination of the pathological organs was performed.

Series [1] is described as follows: Liver microsome stability, monkey. The protocol:
1) Two individual experiments were performed.
1a) With NADPH: 10 μL of 20 mg/mL liver microsomes and 40 μL of 10 mM NADPH were added to the culture solution. The final concentrations of microsomes and NADPH were 0.5 mg/mL and 1 mM, respectively.
1b) Without NADPH: 10 μL of 20 mg/mL liver microsomes and 40 μL of ultrapure H2O were added to the culture solution. The final concentration of microsomes was 0.5 mg/mL.
3) 50 μL of aliquots were taken from the reaction solution at 0 min and 30 min. The reaction was terminated by adding 4 volumes of cold acetonitrile and four internal standards (IS, 100 nM alprazolam, 200 nM caffeine, 200 nM labetalol and 2 μM ketoprofen). The samples were centrifuged at 3, 220×g for 40 min. The aliquots of 100 μL of supernatant were mixed with 100 μL of ultrapure H2O and then used for LC-MS/MS analysis. All experiments were performed in duplicate.
A general note: Liver microsomes are vesicles of endoplasmic reticulum, rich in cytochrome P450 enzymes.

The test system of another series is PANC-1. Kind of series: Cytotoxicity, pancreatic cancer PA cells PANC-1. It counts as cell-based. The following applies: Homo sapiens. The protocol:
(§1) Compounds were exposed at various concentrations for 72 hours, followed by a wash step. Fresh medium was added for growth. The cell was stained to determine the cell survival rate and compared with controls treated with medium only.
(§2) In particular, exponentially grown cells were inoculated in 96-well plates at a density of 2×10^3 cells/100 μl/well and incubated for 24 hours at 37° C. and under the conditions of 5% CO2, 95% air and 100% relative humidity before addition of 99 μl of culture solution. The compounds were dissolved in 100% DMSO at 200 times of the desired final test concentration. When the drug was added, an aliquot of 1 μl of the compound at the specified concentration was added to microwells already containing 199 μl of medium to obtain the reported final drug concentration. After adding the drug, plates were incubated for an additional 72 hours at 37° C., 5% CO2, 95% air and 100% relative humidity. The cell assay plate was left to balance for 30 minutes at room temperature and 100 μL of medium was removed from per well. 100 μl CTG reagent (CelltiterGlo kit) was added into each well. The plate was placed on a fast shaker and shaked for 2 min, and kept in dark at room temperature for 30 min. The chemiluminescence signal value was read by Envision instrument. […]

The test system of a further series is CAL12T. Kind of series: Cytotoxicity, NSCLC cell line CAL12T. It counts as cell-based. The following applies: Homo sapiens, CAL-12T. The protocol: as §1, §2
For another series, the system named is NCI-H2228. Kind of series: Cytotoxicity, NSCLC cell line NCI-H2228. Type of series: cell-based. The following applies: Homo sapiens. The protocol:
as §1, §2

For another series, the system named is QGP-1. Kind of series: Cytotoxicity, pancreatic cancer PA cells QGP-1. It counts as cell-based. The following applies: Homo sapiens. The protocol: as §1, §2
The next series deals with NCI-H1944. Kind of series: Cytotoxicity, NSCLC cell line NCI-H1944. Type of series: cell-based. The following applies: Homo sapiens. The protocol: as §1, §2
For another series, the system named is PL45. Kind of series: Cytotoxicity, pancreatic cancer PA cells PL45. Type of series: cell-based. The following applies: Homo sapiens. The protocol:
as §1, §2

A further series has as its system NCI-H2110. Kind of series: Cytotoxicity, NSCLC cell line NCI-H2110. It counts as cell-based. The following applies: Homo sapiens. The protocol:
as §1, §2

The test system of the next series is NCIH2106. Kind of series: Cytotoxicity, NSCLC cell line NCIH2106. It counts as cell-based. The following applies: Homo sapiens. The protocol: as §1, §2
The next series has as its system MIA PaCa-2. Kind of series: Cytotoxicity, pancreatic cancer PA cells MIA PaCa-2. The following applies: Homo sapiens. It counts as cell-based. The protocol:
as §1, §2

The subject of a further series is NCI-H23. Kind of series: Cytotoxicity, NSCLC cell line NCI-H23. It counts as cell-based. The following applies: Homo sapiens. The protocol: as §1, §2
The test system of a further series is KP-2. Kind of series: Cytotoxicity, pancreatic cancer PA cells KP-2. It counts as cell-based. The following applies: Homo sapiens. The protocol:
as §1, §2

A further series concerns Capan-1. Kind of series: Cytotoxicity, pancreatic cancer PA cells Capan-1. It counts as cell-based. The following applies: Homo sapiens. The protocol: as §1, §2
Another series relates to KP-3. Kind of series: Cytotoxicity, pancreatic cancer PA cells KP-3. Type of series: cell-based. The following applies: Homo sapiens. The protocol:
as §1, §2

In the next series the test system is NCI-H1563. Kind of series: Cytotoxicity, NSCLC cell line NCI-H1563. It counts as cell-based. The following applies: Homo sapiens. The protocol:
as §1, §2

In series [2] the test system is murine intestinal cancer CT26 subcutaneous model. Kind of series: Murine intestinal cancer CT26 subcutaneous model. It counts as in vivo, BALB/c mice. The following applies: 30 mg/kg, tail vein, twice a week. The protocol:
BALB/c mice were subcutaneously inoculated with murine intestinal cancer CT26 cells to establish a murine intestinal cancer subcutaneous transplantation model. […] Anti-mouse PD-1 Ab 10 mg/kg in the single treatment group and in the combination treatment group with compound C 30 mg/kg was administered by intraperitoneal injection twice a week.

For series [3], the system named is HuPrime pancreatic cancer PA3546 subcutaneous xenograft PDX tumor. Kind of series: PA3546 human pancreatic cancer subcutaneous PDX model. The following applies: for relative tumor inhibition rate TGI (%): Day 25.
Method: BALB/c nude mice were subcutaneously inoculated with HuPrime® model PA3546 tumor blocks to establish human pancreatic cancer subcutaneous transplantation tumor model. […] Efficacy was evaluated according to the relative tumor inhibition rate TGI (%), and safety was evaluated according to the change in body weight and the death of animals.
The next series relates to H460 cancer cells. Kind of series: Cytotoxicity on H460 cancer cells, 72 h exposure, CTG. It counts as cell-based. The following applies: Homo sapiens, NCI-H460. The protocol: The quantification value IC50 for cytotoxicity of a human tumor cell line in vitro was used to compare the cancer cell proliferation inhibition of compounds
as §1
In particular, exponentially grown cells were inoculated in 96-well plates at a density of 2×10^3 cells/100 μl/well and incubated for 24 hours at 37° C. and under the conditions of 5% CO2, 95% air and 100% relative humidity before addition of 99 μl of culture solution. The compounds were dissolved in 100% DMSO at 200 times of the desired final test concentration. When the drug was added, an aliquot of 1 μl of the compound at the specified concentration was added to microwells already containing 199 μl of medium to obtain the reported final drug concentration. After adding the drug, plates were incubated for an additional 72 hours at 37° C., 5% CO2, 95% air and 100% relative humidity. The cell assay plate was left to balance for 30 minutes at room temperature and 100 μL of medium was removed from per well. 100 μl CTG reagent (CelltiterGlo kit) was added into each well. […] The chemiluminescence signal value was read by Envision instrument.

Turning to `O=[N+]([O-])c1ccc([C@H](OP(=O)(N2CC2)N2CC2)C(F)(F)F)c2ccccc12` [Compound B], the animal deaths result in the series with ICR mice is “Three of the six”.

Consider `CC(OP(=O)(N1CC1)N1CC1)c1ccc([N+](=O)[O-])c2ccccc12` (stereo not shown) [Compound D], for which the “Remaining percentage after 30 minutes” value in series [1] (with NADPH) is recorded as 0.86%; in series [1] (without NADPH), 95.89%.

Consider `O=[N+]([O-])c1ccc(C(OP(=O)(N2CC2)N2CC2)C(F)(F)F)c2ccccc12` (racemic) [Compound A], for which the IC50 was determined as 29.3 µM with PANC-1; 30.5 µM with CAL12T; 0.264 µM with NCI-H2228; 6.27 µM in the series on QGP-1; 0.538 µM in the series with NCI-H1944; 17.1 µM in the series with PL45. Also, the IC50 with NCI-H2110 came out at 0.382 µM; with NCIH2106, 14.8 µM; in the series on MIA PaCa-2, 6.9 µM; in the series on NCI-H23, 6.41 µM; with KP-2, 29.7 µM; with Capan-1, 5.97 µM. The IC50 in the series on KP-3 is 26.2 µM; in the series on NCI-H1563 it was 4.45 µM.

On to `O=[N+]([O-])c1ccc([C@@H](OP(=O)(N2CC2)N2CC2)C(F)(F)F)c2ccccc12` (single isomer, unassigned) [Compound C], for which, in [2], the median survival time was 19 days. The “body weight loss / tolerability” value in series [3] (10 mg/kg (Group 3)) was “no significant body weight loss and were well tolerated”. For the same molecule, the results for the “relative tumor inhibition rate TGI (%)” value in series [3] (10 mg/kg tail vein QW×3), in [3] (20 mg/kg tail vein QW×3) and in series [3] (40 mg/kg tail vein QW×3) were 32.35%, 36.79% and 35.93%, respectively. The “body weight loss / death” value was “significant weight loss and even death of individual or part of mice” in series [3] (20 mg/kg (Group 4)); “significant weight loss and even death of individual or part of mice” in [3] (40 mg/kg (Group 5)). The molecule further registered an IC50 with H460 cancer cells of 0.0769 µM.
